Assay results: patent publication US6824786B2, “Compositions comprising phenyl-glycine derivatives” (priority 2001, dated 2004)

Assays:
Format in all cases: in vivo, human
[1] = test system: severe dry skin condition of X-linked ichthyosis; experiment: Topical treatment of X-linked ichthyosis skin under Hays Occlusive Chamber
forearm skin = experiment: Forearm skin thickness by micrometer calipers (skin changes associated with aging); conditions: 10% cream twice daily to right forearm for four weeks; subject
Method: In one of the studies related to skin changes associated with aging, skin thickness was measured by micrometer calipers as follows: The skin was grasped with a 2×6 cm metal hinge; the internal faces of which were coated with emery cloth to prevent slippage, and manually squeezed to threshold subject discomfort. Combined thickness of two whole-skin layers including thickness of the two hinge leaves was measured with micrometer calipers. Thickness of the two hinge leaves was subtracted to determine the actual thickness of two whole-skin layers. Triplicate measurements on treated sites were conducted and an average number was used for calculation of the skin thickness. A subject, applied topically twice daily N-acetyl-4-hydroxyphenyl-glycinamide 5% cream to their left forearm for eight weeks. […] While there was no change in skin thickness of their right forearm, their left forearm had increased 49% in skin thickness as measured by the micrometer calipers (Example 1). […] While there was no change in skin thickness of their right forearm, their left forearm had increased 24% in skin thickness as measured by the micrometer calipers (Example 1). […] While there was no change in skin thickness of their left forearm, their right forearm had increased 25% in skin thickness as measured by the micrometer calipers (Example 1).

chronic plaque psoriasis = experiment: Topical treatment of chronic plaque psoriasis
Excerpt: A subject, having chronic plaque psoriasis for 55 year duration resistant to all forms of topical therapy, topically applied N-acetyl-4-hydroxyphenyl-glycinamide 10% cream twice daily to a thick plaque of psoriasis on the right elbow. […] The clinical evaluation was judged to be a 75% improvement after five days of topical treatment. […] Clinical evaluation rated the improvement to be about 90%. Three patients having chronic plaque psoriasis resistant to most forms of topical therapy topically applied N-acetyl-4-acetoxyphenyl-glycinamide 5% cream (Example 24) twice daily to thick plaques of psoriasis. […] The clinical evaluation was judged to be an 80% improvement after one week of topical treatment. […] Clinical evaluation rated the improvement on three patients to be from 95 to 100%.

[2] = 5% cream twice daily, after one week, three patients

SMILES | conclusion: topical treatment of severe dry skin and symptomatic relief of congenital ichthyosis ([1]; 10% cream) | clinical appearance of treated site after stopping treatment ([1]; 10% cream one week under chamber, then another week without any further treatment) | clinical appearance of treated site ([1]; 10% cream, 1 cm^2 involved skin of back under Hays Occlusive Chamber, after one week, subject) | appearance of treated forearm (forearm skin) | increase in skin thickness (forearm skin) [%] | erythema and thickness of the plaques (chronic plaque psoriasis; 5% cream (Example 24) twice daily, after one week, three patients) | clinical evaluation, improvement (chronic plaque psoriasis; [2]) [%] | psoriatic scales (chronic plaque psoriasis; [2]) | clinical appearance of treated area (chronic plaque psoriasis; 5% cream twice daily, after two weeks, three patients) | conclusion: topical treatment of psoriasis (chronic plaque psoriasis; cream twice daily)
COC(=O)CNc1ccc(O)cc1 [4-hydroxyphenyl-glycine methyl ester] | therapeutically effective | remained normal in clinical appearance | free of all evidence of ichthyosis |  |  |  |  |  |  | 
CC(=O)NC(=O)CNc1ccc(OC(C)=O)cc1 [N-acetyl-4-acetoxyphenyl-glycinamide] |  |  |  | more firm, smooth, plump and minimally wrinkled when lifted | 25 | diminished substantially | 80 | no evidence of any psoriatic scales | clinically normal | therapeutically effective
